Laboratory results as given in US9708628B2, “Cationic lipid having improved intracellular kinetics” (NOF CORPORATION, priority 2011, dated 2017).
“Also recorded” adds a separate entry of the source.

Legend:
HT1080 cells [1] = test: Influence of endosome/lysosome acidification inhibition (bafilomycin A1) on gene expression activity; format: cell-based; details: 0.5 μM bafilomycin A1
Procedure: Using B-2 (Example 1), B-2-1 (Comparative Example 1), and DODAP (Comparative Example 2) as cationic lipids, MENDs having a composition of cationic lipid:SOPE:Chol=5:3:2 were prepared by the method described in [Experimental Example 1] (2). For the preparation, PEG2000-DMG was used as PEG lipid, and MEND solutions corresponding to 0.55 mM of the lipid concentration were prepared. For cationic MEND, lipids having a composition of DOTAP (Comparative Example 3):DOPE:Chol:=3:4:3 were used, and the cationic MEND was prepared according to the method described in [Experimental Example 1] (3).
HT1080 cells were plated on a 24-well plate at 4×10^4 cell/500 μL/well 24 hr before, bafilomycin A1 was added at 0.5 μM 30 min before for a pre-treatment. Various MENDs were diluted with DMEM (FBS 10%+) to a pDNA amount of 0.4 μg/500 μL/well, bafilomycin A1 was added at 0.5 μM, and transfection was performed. 3 hr later, the MEND solution was removed, and DMEM (FBS 10%+) was added at 500 μL/well to change the medium. 24 hr later, the cells were washed with PBS(−) (500 μL), 1× Lysis buffer was added to each well by 75 μL, and the mixture was stood at −80° C. for 30 min or longer. The frozen 24-well plate was thawed on ice, the cells were detached with a cell scraper, and the total amount thereof was transferred into an Eppendorf tube and centrifuged under the conditions of 15000 rpm, 4° C., 5 min. The supernatant (50 μL) was recovered in a different Eppendorf tube, and used for luciferase assay and BCA assay. The gene expression was evaluated by the method described in [Example 4] (2).

HT1080 cells [2] = test: Intracellular kinetics: decapsulation of pDNA from MEND (confocal microscopy); format: cell-based; details: 3 hr after transfection
Procedure: For MEND preparation, the Rhodamine-labeled pDNA prepared by the method of [Experimental Example 1] (4) was used. In addition, the fluorescence label of the lipid constituting MEND was measured by the method described in [Experimental Example 1] (3). MENDs having a composition of cationic lipid:SOPE:Chol=5:3:2 were prepared by the method described in [Experimental Example 1] (2). For the preparation, PEG2000-DMG was used as PEG lipid, and MEND solutions corresponding to 0.55 mM of the lipid concentration were prepared. For cationic MEND, a lipid having a composition of DOTAP:DOPE:Chol:=3:4:3 was used, and the cationic MEND was prepared according to the method described in [Experimental Example 1] (3). […]
HT1080 cells were plated on a glass bottom dish at 1×10^5 cells/2 mL/dish 24 hr before. B-2 MEND was diluted with Krebs buffer to achieve pDNA 8 μg/1 mL Krebs buffer/dish. As for B-2-1 or DOTAP MEND, MEND was diluted with Krebs buffer to achieve pDNA 1.6 μg/1 mL Krebs buffer/dish and transfected. After 2.5 hr, Hoechst 33342 was added at 1 μL/dish and, 30 min later, the cells were washed twice with heparin solution (20 units/mL, 2 mL), Krebs buffer (1 mL) was added, and the cells were observed by a confocal laser scan microscope.
Rhodamine-labeled pDNA, lipid membrane of MEND and nucleus were shown in pseudo colors of red, green and blue, respectively.

Factor VII (FVII) = test: Knockdown effect of siRNA-encapsulated MEND (plasma FVII); format: in vivo, ICR mice; details: 3 mg siRNA/kg, tail vein, 24 hr
Procedure: A siRNA solution and protamine (CALBIOCHEM) solution were diluted with 10 mM HEPES buffer (pH 5.3) to 0.3 mg/mL and 0.2 mg/mL, respectively. While stirring 0.3 mg/mL siRNA solution (250 μL), 0.2 mg/mL protamine solution (250 μL) was added dropwise in small portions to prepared an electrostatic complex of siRNA and protamine (N/P ratio=1.0) as a core of the vector.
As a siRNA sequence for Factor VII (FVII), one described in Akinc et al, Molecular Therapy, 17(5) 872-879 (2009), which was free of chemical modification, was used.
A lipid solution in ethanol was mixed at a ratio of B-2:SOPE:Chol=5:3:2 for B-2 MEND (Example 1), at a ratio of B-2-4:DOPE:Chol=3:3:4 for B-2-4 MEND (Example 4), and at a ratio of B-2-5:POPE:Chol=3:4:3 for B-2-5 MEND (Example 5), to a total lipid of 660 nmol in a 5 mL tube. Further, PEG2000-DMG was added as PEG lipid in an amount equivalent to 3 mol % of the total lipid, and ethanol was added to a total volume of 400 μL each. While stirring the lipid solution by a vortex mixer, a solution (400 μL) of a nucleic acid electrostatic complex composed of siRNA/protamine prepared in [Experimental Example 27] was mixed, then 10 mM HEPES buffer (pH 5.3, 2.4 mL) was quickly added, and the mixture was vigorously stirred. The mixture was subjected to centrifugal ultrafiltration using Amicon Ultra-15 100K device (Millipore) at 1000 g, 10 min, 30° C. The mixture was sufficiently diluted with 10 mM HEPES buffer (pH 7.4), and again subjected to centrifugal ultrafiltration. This solution was adjusted to an object lipid concentration with 10 mM HEPES buffer (pH 7.4).
A MEND solution prepared by the method shown in [Experimental Example 28] was administered to 4-week-old male ICR mice at 3 mg siRNA/kg from the tail vein, and blood was collected 24 hr later. This blood sample was centrifuged at 1000 g, 10 min, 4° C., and the supernatant was recovered to obtain plasma. The amount of Factor VII (FVII) in the plasma was quantified by BIOPHEN FVII CHROMOGENIC ASSAY (HYPHEN BioMed).

Compound	gene expression activity under bafilomycin A1 (HT1080 cells [1])	gene decapsulation (colocalization of pDNA red and MEND lipid green) (HT1080 cells [2])	FVII expression level in plasma (knockdown effect) (Factor VII (FVII))
CCCCCCCC/C=C\CCCCCCCC(=O)OCC(CN(C)C)OC(=O)CCCCCCC/C=C\CCCCCCCC (stereo not shown) [DODAP, reference compound]	showed a decrease in the gene expression activity		
CCCCCCCC/C=C\CCCCCCCC(=O)OCC(C[N+](C)(C)C)OC(=O)CCCCCCC/C=C\CCCCCCCC (stereo not shown) [DOTAP, reference compound]	did not show a decrease in the gene expression activity	Red dots were notable	
CCCCCCCCCCCCCC(=O)OCCCN(C)CCCCCCN(C)CCCOC(=O)CCCCCCCCCCCCC [Example B-2-1, reference compound]	did not show a decrease in the gene expression activity	clear colocalization of red and green	
CC1=C(/C=C/C(C)=C/C=C/C(C)=C/C(=O)OCCCN(C)CCSSCCN(C)CCCOC(=O)/C=C(C)/C=C/C=C(C)/C=C/C2=C(C)CCCC2(C)C)C(C)(C)CCC1 [Example B-2-4]			decrease in the FVII expression level as compared to the non-treatment group
Cc1c(C)c2c(c(C)c1OC(=O)CCC(=O)OCCCN(C)CCSSCCN(C)CCCOC(=O)CCC(=O)Oc1c(C)c(C)c3c(c1C)CCC(C)(CCCC(C)CCCC(C)CCCC(C)C)O3)CCC(C)(CCCC(C)CCCC(C)CCCC(C)C)O2 (stereo not shown) [Example B-2-5]			decrease in the FVII expression level as compared to the non-treatment group; also recorded: greatest knockdown effect
CCCCCCCCCCCCCC(=O)OCCCN(C)CCSSCCN(C)CCCOC(=O)CCCCCCCCCCCCC [Example B-2]	showed a decrease in the gene expression activity	Red dots were notable	decrease in the FVII expression level as compared to the non-treatment group
